Source: the kinase profiling compilation of Christmann-Franck et al. (2016)

Assays:
Assay in all cases: KINOMEscan competition binding
PIK3CA (human) = PIK3CA (human) (UniProt P42336)
[1] = target: MET (human), P08581 [Y1235D]
RIPK4 (human) = RIPK4 (human) (UniProt P57078)
HUNK (human) = HUNK (human) (UniProt P57058)
CDK17 (human) = CDK17 (human) (UniProt Q00537)
[2] = target: ABL1 (human), P00519 [F317I]
MAPK12 (human) = MAPK12 (human) (UniProt P53778)
TEC (human) = TEC (human) (UniProt P42680)
STK25 (human) = STK25 (human) (UniProt O00506)
DDR2 (human) = DDR2 (human) (UniProt Q16832)
BTK (human) = BTK (human) (UniProt Q06187)
TNIK (human) = TNIK (human) (UniProt Q9UKE5)
IKBKB (human) = IKBKB (human) (UniProt O14920)
MAP4K1 (human) = MAP4K1 (human) (UniProt Q92918)
STK35 (human) = STK35 (human) (UniProt Q8TDR2)
PRKACB (human) = PRKACB (human) (UniProt P22694)
TESK1 (human) = TESK1 (human) (UniProt Q15569)
[3] = target: PIK3CA (human), P42336 [E545K]
CLK4 (human) = CLK4 (human) (UniProt Q9HAZ1)
MAPK9 (human) = MAPK9 (human) (UniProt P45984)
CSNK1D (human) = CSNK1D (human) (UniProt P48730)
NTRK3 (human) = NTRK3 (human) (UniProt Q16288)
FYN (human) = FYN (human) (UniProt P06241)
CDK16 (human) = CDK16 (human) (UniProt Q00536)
EPHA3 (human) = EPHA3 (human) (UniProt P29320)
CAMK1D (human) = CAMK1D (human) (UniProt Q8IU85)
TNNI3K (human) = TNNI3K (human) (UniProt Q59H18)
LIMK2 (human) = LIMK2 (human) (UniProt P53671)
[4] = target: FGFR3 (human), P22607 [G697C]
RIOK2 (human) = RIOK2 (human) (UniProt Q9BVS4)
CAMKK1 (human) = CAMKK1 (human) (UniProt Q8N5S9)
MAP2K4 (human) = MAP2K4 (human) (UniProt P45985)
RAF1 (human) = RAF1 (human) (UniProt P04049)
HIPK4 (human) = HIPK4 (human) (UniProt Q8NE63)
CSF1R (human) = CSF1R (human) (UniProt P07333)
SIK2 (human) = SIK2 (human) (UniProt Q9H0K1)
YSK4 (human) = YSK4 (human) (UniProt Q56UN5)
MAP3K12 (human) = MAP3K12 (human) (UniProt Q12852)
MYO3A (human) = MYO3A (human) (UniProt Q8NEV4)
TIE1 (human) = TIE1 (human) (UniProt P35590)
SIK1 (human) = SIK1 (human) (UniProt P57059)
Sequence of SIK1 (human) (P57059 whole entry, looked up): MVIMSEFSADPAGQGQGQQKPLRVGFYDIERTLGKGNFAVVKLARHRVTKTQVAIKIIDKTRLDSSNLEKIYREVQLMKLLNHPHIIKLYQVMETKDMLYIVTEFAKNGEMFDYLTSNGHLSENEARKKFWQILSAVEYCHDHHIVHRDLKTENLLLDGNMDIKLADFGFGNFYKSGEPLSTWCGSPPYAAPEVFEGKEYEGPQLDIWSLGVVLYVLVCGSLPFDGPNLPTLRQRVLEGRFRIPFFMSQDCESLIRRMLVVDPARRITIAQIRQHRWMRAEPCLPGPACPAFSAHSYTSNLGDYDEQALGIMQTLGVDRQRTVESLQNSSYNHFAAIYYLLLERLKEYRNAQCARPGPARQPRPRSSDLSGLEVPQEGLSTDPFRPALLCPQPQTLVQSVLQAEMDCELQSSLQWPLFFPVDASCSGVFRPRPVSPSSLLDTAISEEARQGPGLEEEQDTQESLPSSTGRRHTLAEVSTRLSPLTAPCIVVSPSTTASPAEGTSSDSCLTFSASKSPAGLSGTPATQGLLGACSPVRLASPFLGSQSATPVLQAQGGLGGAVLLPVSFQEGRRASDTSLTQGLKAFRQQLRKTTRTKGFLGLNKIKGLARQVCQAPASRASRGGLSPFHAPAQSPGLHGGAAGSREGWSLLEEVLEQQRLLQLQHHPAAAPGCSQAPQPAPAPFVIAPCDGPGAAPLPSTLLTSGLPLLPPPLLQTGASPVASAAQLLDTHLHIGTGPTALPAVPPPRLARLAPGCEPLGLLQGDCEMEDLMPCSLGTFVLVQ

Sequence of EPHA3 (human) (P29320 whole entry, looked up): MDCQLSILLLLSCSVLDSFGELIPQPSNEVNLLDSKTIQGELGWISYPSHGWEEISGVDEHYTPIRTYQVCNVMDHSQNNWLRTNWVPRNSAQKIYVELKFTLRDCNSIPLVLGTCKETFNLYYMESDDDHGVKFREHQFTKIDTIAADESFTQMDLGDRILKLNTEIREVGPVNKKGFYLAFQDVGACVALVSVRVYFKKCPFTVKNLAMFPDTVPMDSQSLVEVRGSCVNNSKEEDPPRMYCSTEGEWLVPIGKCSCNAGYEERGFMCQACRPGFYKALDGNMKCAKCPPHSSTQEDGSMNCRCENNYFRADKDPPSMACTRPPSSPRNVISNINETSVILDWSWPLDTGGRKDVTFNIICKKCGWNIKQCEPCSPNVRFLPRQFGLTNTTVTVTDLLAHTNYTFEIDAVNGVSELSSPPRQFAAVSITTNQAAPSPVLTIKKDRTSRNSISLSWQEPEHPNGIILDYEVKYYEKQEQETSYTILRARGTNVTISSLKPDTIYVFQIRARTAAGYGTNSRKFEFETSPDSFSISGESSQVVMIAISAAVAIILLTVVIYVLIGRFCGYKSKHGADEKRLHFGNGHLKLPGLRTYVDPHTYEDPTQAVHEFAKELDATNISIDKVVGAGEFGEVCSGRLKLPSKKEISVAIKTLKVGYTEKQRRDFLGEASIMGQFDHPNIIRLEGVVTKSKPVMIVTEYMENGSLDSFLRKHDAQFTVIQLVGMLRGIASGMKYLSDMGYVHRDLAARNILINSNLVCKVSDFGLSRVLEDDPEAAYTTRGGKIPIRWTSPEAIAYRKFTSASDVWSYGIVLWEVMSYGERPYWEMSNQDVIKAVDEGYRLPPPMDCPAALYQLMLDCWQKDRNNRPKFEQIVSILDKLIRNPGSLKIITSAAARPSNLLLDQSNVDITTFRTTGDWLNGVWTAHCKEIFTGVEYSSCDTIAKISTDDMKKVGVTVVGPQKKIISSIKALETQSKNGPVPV
Sequence of CDK17 (human) (Q00537 whole entry, looked up): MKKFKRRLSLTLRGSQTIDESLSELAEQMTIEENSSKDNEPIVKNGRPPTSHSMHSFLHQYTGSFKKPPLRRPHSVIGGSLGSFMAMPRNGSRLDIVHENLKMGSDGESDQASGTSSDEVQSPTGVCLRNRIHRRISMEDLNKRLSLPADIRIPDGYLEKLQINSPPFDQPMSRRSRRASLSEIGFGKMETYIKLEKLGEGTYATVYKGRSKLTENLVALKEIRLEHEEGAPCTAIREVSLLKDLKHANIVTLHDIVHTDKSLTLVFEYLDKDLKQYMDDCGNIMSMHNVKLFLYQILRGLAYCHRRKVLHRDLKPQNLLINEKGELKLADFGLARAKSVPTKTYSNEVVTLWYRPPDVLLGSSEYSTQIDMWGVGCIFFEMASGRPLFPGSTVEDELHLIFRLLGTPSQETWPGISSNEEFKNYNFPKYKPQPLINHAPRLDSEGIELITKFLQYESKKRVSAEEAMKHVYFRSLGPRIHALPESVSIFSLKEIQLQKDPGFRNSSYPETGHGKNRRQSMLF
Sequence of IKBKB (human) (O14920 whole entry, looked up): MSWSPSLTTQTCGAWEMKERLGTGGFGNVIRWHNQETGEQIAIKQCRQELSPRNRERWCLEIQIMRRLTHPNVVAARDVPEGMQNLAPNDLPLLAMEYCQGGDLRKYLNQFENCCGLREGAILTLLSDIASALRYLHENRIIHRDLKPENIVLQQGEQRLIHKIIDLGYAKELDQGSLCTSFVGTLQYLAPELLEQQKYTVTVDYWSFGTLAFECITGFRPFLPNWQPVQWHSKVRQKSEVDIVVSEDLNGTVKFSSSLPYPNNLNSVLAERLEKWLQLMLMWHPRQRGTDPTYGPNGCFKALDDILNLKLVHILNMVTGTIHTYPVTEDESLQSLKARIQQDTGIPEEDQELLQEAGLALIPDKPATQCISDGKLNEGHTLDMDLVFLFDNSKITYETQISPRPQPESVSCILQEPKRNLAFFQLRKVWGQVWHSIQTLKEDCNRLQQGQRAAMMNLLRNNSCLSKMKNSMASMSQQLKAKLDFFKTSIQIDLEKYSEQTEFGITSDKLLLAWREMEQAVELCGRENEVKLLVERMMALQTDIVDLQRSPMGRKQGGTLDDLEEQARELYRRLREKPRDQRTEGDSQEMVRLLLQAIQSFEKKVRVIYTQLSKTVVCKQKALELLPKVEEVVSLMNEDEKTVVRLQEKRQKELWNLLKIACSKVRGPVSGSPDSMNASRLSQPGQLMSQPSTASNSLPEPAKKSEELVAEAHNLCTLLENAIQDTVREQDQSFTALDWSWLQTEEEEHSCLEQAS
Sequence of TESK1 (human) (Q15569 whole entry, looked up): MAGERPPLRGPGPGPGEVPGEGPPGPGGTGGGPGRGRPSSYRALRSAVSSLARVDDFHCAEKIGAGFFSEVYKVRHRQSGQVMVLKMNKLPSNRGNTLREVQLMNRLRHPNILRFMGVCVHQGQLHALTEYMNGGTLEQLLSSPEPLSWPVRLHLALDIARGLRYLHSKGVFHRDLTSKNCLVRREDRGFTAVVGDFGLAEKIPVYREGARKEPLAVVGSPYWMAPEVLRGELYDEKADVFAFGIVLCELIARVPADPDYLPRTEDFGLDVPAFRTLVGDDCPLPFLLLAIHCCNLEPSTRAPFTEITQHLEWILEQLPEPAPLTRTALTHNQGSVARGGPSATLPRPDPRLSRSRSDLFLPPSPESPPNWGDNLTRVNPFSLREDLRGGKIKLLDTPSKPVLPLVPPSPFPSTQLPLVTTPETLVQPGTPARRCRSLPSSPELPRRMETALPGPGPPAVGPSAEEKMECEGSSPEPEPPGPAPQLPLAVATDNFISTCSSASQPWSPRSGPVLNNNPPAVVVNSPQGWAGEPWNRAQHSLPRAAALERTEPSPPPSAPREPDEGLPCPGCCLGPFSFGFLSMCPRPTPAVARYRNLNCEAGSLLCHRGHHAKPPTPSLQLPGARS
Sequence of CSF1R (human) (P07333 whole entry, looked up): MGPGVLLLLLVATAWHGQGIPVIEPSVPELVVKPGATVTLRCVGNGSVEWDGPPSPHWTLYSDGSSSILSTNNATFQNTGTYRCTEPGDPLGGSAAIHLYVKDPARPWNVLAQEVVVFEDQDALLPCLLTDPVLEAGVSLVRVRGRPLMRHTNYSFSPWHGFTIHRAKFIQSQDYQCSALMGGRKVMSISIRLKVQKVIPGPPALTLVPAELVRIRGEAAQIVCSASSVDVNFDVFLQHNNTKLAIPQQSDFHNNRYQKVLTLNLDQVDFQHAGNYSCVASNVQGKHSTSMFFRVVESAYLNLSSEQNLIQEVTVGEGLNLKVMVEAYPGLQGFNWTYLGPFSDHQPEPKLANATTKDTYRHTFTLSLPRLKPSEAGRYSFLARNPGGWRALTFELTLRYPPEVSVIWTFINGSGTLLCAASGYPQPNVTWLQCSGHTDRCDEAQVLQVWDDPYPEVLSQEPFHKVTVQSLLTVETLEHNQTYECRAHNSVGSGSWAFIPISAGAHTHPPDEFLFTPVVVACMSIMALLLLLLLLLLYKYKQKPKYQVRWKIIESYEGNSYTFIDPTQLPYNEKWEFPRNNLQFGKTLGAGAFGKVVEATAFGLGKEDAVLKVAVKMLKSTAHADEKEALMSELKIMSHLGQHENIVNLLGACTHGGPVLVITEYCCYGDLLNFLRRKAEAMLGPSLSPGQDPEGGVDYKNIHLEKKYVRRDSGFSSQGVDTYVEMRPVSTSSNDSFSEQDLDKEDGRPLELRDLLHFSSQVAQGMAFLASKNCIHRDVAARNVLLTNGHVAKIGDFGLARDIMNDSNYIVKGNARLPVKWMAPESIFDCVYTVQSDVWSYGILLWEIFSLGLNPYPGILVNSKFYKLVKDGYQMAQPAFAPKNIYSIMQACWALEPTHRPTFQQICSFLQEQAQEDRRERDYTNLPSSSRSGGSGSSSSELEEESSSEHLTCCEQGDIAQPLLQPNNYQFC
Sequence of MAP2K4 (human) (P45985 whole entry, looked up): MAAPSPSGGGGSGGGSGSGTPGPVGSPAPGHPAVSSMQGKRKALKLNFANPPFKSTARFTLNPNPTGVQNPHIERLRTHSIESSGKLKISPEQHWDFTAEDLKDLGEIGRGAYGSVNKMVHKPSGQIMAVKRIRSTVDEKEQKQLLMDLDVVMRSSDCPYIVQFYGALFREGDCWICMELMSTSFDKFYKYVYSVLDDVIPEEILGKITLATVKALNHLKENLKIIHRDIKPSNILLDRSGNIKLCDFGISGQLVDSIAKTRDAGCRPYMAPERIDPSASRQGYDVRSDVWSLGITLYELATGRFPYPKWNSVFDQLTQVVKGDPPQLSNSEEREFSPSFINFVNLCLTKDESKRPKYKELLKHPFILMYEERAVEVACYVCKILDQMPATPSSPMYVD

Kd (PIK3CA (human)): 27000 nM | Kd [1]: 260 nM | Kd (RIPK4 (human)): 16000 nM | Kd (HUNK (human)): 12000 nM | Kd (CDK17 (human)): 630 nM | Kd [2]: 2.5 nM | Kd (MAPK12 (human)): 1300 nM | Kd (TEC (human)): 6000 nM | Kd (STK25 (human)): 19000 nM | Kd (DDR2 (human)): 5.4 nM | Kd (BTK (human)): 9000 nM | Kd (TNIK (human)): 66 nM | Kd (IKBKB (human)): 960 nM | Kd (MAP4K1 (human)): 220 nM | Kd (STK35 (human)): 470 nM | Kd (PRKACB (human)): 20000 nM | Kd (TESK1 (human)): 38000 nM | Kd [3]: 29000 nM | Kd (CLK4 (human)): 16000 nM | Kd (MAPK9 (human)): 4.1 nM | Kd (CSNK1D (human)): 13000 nM | Kd (NTRK3 (human)): 2200 nM | Kd (FYN (human)): 130 nM | Kd (CDK16 (human)): 1600 nM | Kd (EPHA3 (human)): 36 nM | Kd (CAMK1D (human)): 3800 nM | Kd (TNNI3K (human)): 28 nM | Kd (LIMK2 (human)): 3800 nM | Kd [4]: 3100 nM | Kd (RIOK2 (human)): 36000 nM | Kd (CAMKK1 (human)): 16000 nM | Kd (MAP2K4 (human)): 18000 nM | Kd (RAF1 (human)): 39 nM | Kd (HIPK4 (human)): 34 nM | Kd (CSF1R (human)): 8.6 nM | Kd (SIK2 (human)): 24000 nM | Kd (YSK4 (human)): 3.7 nM | Kd (MAP3K12 (human)): 35000 nM | Kd (MYO3A (human)): 15000 nM | Kd (TIE1 (human)): 24 nM | Kd (SIK1 (human)): 1800 nM
Compound: COc1cc2ncnc(Oc3cccc(NC(=O)Nc4cc(C(C)(C)C(F)(F)F)on4)c3)c2cc1OC
